{"source": "patent US20160297828A1", "about": "“SPIROCYCLIC COMPOUNDS CONTAINING SPIRO[INDOLYL-3,1'-PYRROLO[3,4-C]PYRROLE] CORE AND SULPHUR-CONTAINING AMINO ACID RESIDUES” (priority 2013, published 2016)", "type_in_all_cases": "in vivo", "key": {"[1]": {"system": "neuron-specific enolase (NSE)", "test": "Neuron-specific enolase (NSE) activity in rats with bilateral carotid occlusion (ELISA)", "conditions": "BCO; for NSE activity (dynamics of neurodestructive changes): n = 7", "method": "The derivative of 3,2′-spiro-pyrrolo-2-oxindole was studied in conventionally effective dose of 10 mg/kg […] (iv)—dose that by the results of our previous study provided maximum antihypoxic activity of the SI-86compound. Reference drugs were injected intraperitoneally (ip). […] BCO was made to rats of control pathology and as therapy 0.9% NaCI solution was administered calculated for 2 ml/kg ip.\nPseudooperative rats were exposed to all interventions (anesthesia, skin incision, dissection of vessels) except arteries ligation that leveled traumatic effect of experimental conditions.\nTo determine neurospecific enolase, specific marker of cerebral ischemia,—to the period (4 th and 21 st day of CVA) in rat's blood was sampled by sagittal sinus puncture (0.2-0.4 ml). NSE activity was measured by ELISA using a set NSE EIA KIT (DAI, USA) on the instrument of the company “Hipson” (Czech Republic)."}, "[2]": {"system": "rats with intracerebral hemorrhage", "test": "Conditioned response of passive avoidance (CRPA) in rats with intracerebral hemorrhage", "conditions": "21st day, n = 15", "method": "Neuroprotective effect of 3,2′-spiro-pyrrolo-2-oxindole derivative (SI-86 compound) was studied on IUD model of moderate severity modeled under propofol anesthesia (60 mg/kg intraperitoneally (ip)) by autoblood administration into the brain internal capsule (stereotactic coordinates of the projection: H=7.0 mm, L=3.0 mm, A=1.5 mm from bregma) ([…]) (Method for reproduction of intracerebral hemorrhage in rats/O. K. Yarosh, S. V. Kyrychenko, S. P. Halimonchyk [et al.]//Circulation and hemostasis.-2005.-No. 1.-P. 77-81). The chosen model allows to reproduce clinical pattern of […] and is adequate for clinical study of potential neuroprotective agents.\nAs comparators the following drugs were used: mexydol (“Mexydol” UC Pharmasoft, Russia), 100 mg/kg; citicoline (“Somazina” Ferrer International, SA, Spain), 250 mg/kg; aktovegin (“Aktovegin”, Nycomed, Austria), 16 mg/kg pyracetam (“Pyracetam” Darnitsa, Ukraine), 400 mg/kg. According to the latest clinical guidelines regarding the treatment of patients with CVA approved by the Ministry of Health of Ukraine (Order No. 602 dated 3 Aug. 2012), all these drugs are allowed to be included into schemes for intensive patients therapy with CVA as neuroprotective agents. They were used at recommended doses for preclinical studies (McGrow C. P. Experimental Cerebral Infarction Effects of Pentobarbital in Mongolian Gerbils/C. P. McGrow//Arch. Neurol.-1977.-Vol. 34, No. 6.-P. 334-336). Experimental therapy of acute cerebral ischemia with SI-86 compound and comparator started 1 hour after IUD once a day for 21 days. The SI-86 derivative was investigated in conventionally effective dose of 10 mg/kg […] (iv)-dose that according to the results of our previous study provides maximum antihypoxic activity of SI-86 compound. Reference drugs were injected intraperitoneally (ip). Rats of control pathology group were injected by autoblood and as therapy 0.9% NaCI solution was administered calculated for 2 ml/kg […].\n(§1) Evaluation of the ability of animals to learn and memorize of aversive stimulus was examined in the test of conditioned response of passive avoidance (CRPA). The technique is based on innate rat instinct to limited shadowy space. The study in rats was conducted in two-compartment unit consisted of two sections—light and dark. An animal was arranged into light compartment, fixing latency time for entering into the dark compartment, wherein rat received current irritation and ran in the light compartment. CRPA retention was tested every other day under latency time change of rat entering into the dark compartment. Also the number of animals was noted not fully entered the dark chamber. Cerebroprotective efficiency criteria of studied compounds were also animal death term (days) and their mortality rate (in %)."}, "[3]": {"system": "rats with intracerebral hemorrhage", "test": "Lethality of rats with intracerebral hemorrhage of average severity", "method": "The chosen model allows to reproduce clinical pattern of […] and is adequate for clinical study of potential neuroprotective agents.\nAs comparators the following drugs were used: mexydol (“Mexydol” UC Pharmasoft, Russia), 100 mg/kg; citicoline (“Somazina” Ferrer International, SA, Spain), 250 mg/kg; aktovegin (“Aktovegin”, Nycomed, Austria), 16 mg/kg pyracetam (“Pyracetam” Darnitsa, Ukraine), 400 mg/kg. According to the latest clinical guidelines regarding the treatment of patients with CVA approved by the Ministry of Health of Ukraine (Order No. 602 dated 3 Aug. 2012), all these drugs are allowed to be included into schemes for intensive patients therapy with CVA as neuroprotective agents. They were used at recommended doses for preclinical studies (McGrow C. P. Experimental Cerebral Infarction Effects of Pentobarbital in Mongolian Gerbils/C. P. McGrow//Arch. Neurol.-1977.-Vol. 34, No. 6.-P. 334-336). Experimental therapy of acute cerebral ischemia with SI-86 compound and comparator started 1 hour after IUD once a day for 21 days. […] Reference drugs were injected intraperitoneally (ip). Rats of control pathology group were injected by autoblood and as therapy 0.9% NaCI solution was administered calculated for 2 ml/kg iv.\nPseudo-operated rats were exposed to all interventions (anesthesia, craniotomy) excluding autoblood administration that leveled traumatic impact of experimental conditions.\nas §1\nQuantitative data were processed using statistical StatPlus 2009 processing. The statistical significance of differences was assessed by Fisher's angular transformation (lethality outcome), also parametric t Student criterion were used in case of normal distribution of variation series, nonparametric W White criterion—in its absence."}, "[4]": {"conditions": "12 h, SI-86 10 mg/kg iv, mexydol 100, citocoline 250, actovegin 16, pyracetam 400 mg/kg"}}, "note": "Marks after values point to notes of the source that are not given here."}
{"smiles": "CSCC[C@@H]1N[C@@]2(C(=O)Nc3ccccc32)[C@@H]2C(=O)N(c3ccc(C)cc3)C(=O)[C@H]12", "note": "[SI-86, 5′-(4-Methylphenyl)-3′-[2-(methylthio)ethyl]-3a′,6a′-dihydro-2′H-spiro[indole-3,1′-pyrrolo[3,4-c]pyrrol]-2,4′,6′(1H,3′H,5′H)-trione]", "values": [{"measurement": "enzyme activity decreased in relation to the control pathology group", "setting": "[1]; 96 hours", "result": 2.03, "unit": "times"}, {"measurement": "enzyme activity decreased in relation to the control pathology group", "setting": "[1]; 21 days", "result": 3.84, "unit": "times"}, {"measurement": "effectiveness in reducing NSE better than citocoline", "setting": "[1]; acute period", "result": 1.6, "unit": "times"}, {"measurement": "NSE activity (dynamics of neurodestructive changes)", "setting": "[1]; day 4, SI-86 10 mg/kg iv, citocoline 250 mg/kg ip", "result": "0.61 ± 0.004*^#•"}, {"measurement": "NSE activity (dynamics of neurodestructive changes)", "setting": "[1]; day 21, same doses", "result": "0.204 ± 0.015*^#•"}, {"measurement": "effectiveness in reducing NSE better than citocoline", "setting": "[1]; recovery period", "result": 1.9, "unit": "times"}, {"measurement": "Latent period for entrance into dark compartment, prior study", "setting": "[2]; SI-86 10 mg/kg iv, mexydol 100, citocoline 250, actovegin 16, pyracetam 400 mg/kg ip", "result": "9.50 ± 0.34", "unit": "°*^#•$ s"}, {"measurement": "Latent period for entrance into dark compartment, 24 hours after study", "setting": "[2]; same doses", "result": "127.10 ± 2.71", "unit": "°*^#•$ s"}, {"measurement": "Lethality, %", "setting": "[3]; [4]", "result": "0/0%"}, {"measurement": "Lethality, abs.", "setting": "[3]; [4]", "result": "0/0%"}, {"measurement": "Lethality, abs.", "setting": "[3]; 24 h, same doses", "result": "0/0%*^#"}, {"measurement": "cerebroprotective protection", "setting": "[3]; 24 h observation, SI-86 10, mexydol 100, citicoline 250 mg/kg", "result": 100, "unit": "%"}, {"measurement": "Lethality, abs.", "setting": "[3]; 48 h, same doses", "result": "0/0%*^#&•$"}, {"measurement": "Lethality, %", "setting": "[3]; 72 h, same doses", "result": 5.9, "unit": "%"}, {"measurement": "Lethality, abs.", "setting": "[3]; 72 h, same doses", "result": 2}, {"measurement": "Lethality, %", "setting": "[3]; 96 h, same doses", "result": 11.8, "unit": "%"}, {"measurement": "Lethality, abs.", "setting": "[3]; 96 h, same doses", "result": 4}]}
